A value given as a limit tells only on which side of the number the result lay.

Consider 15 compounds from patent publication US20220227789A1, “NOVEL INDOLIZINE-2-CARBOXAMIDES ACTIVE AGAINST THE HEPATITIS B VIRUS (HBV)” (AiCuris GmbH & Co. KG, priority 2019, published 2022).

Experiment [1] deals with T1, HBV core protein (C-terminal truncated, 149 aa assembly domain) (Hepatitis B virus genotype D subtype adw, UniProt P03147, C107A/C48A/C61A).
T1 construct: The C-terminal truncated core protein containing 149 amino acids of the N-terminal assembly domain; made in house; host or cells: E. coli BL21 (DE3) Rosetta2, plasmid pET21b
Briefly: Biochemical capsid assembly assay (fluorescence quenching). The note with it: BODIPY-FL labelled core protein, assembly started with NaCl, read after 6 min; read-out: Assembly Activity. Here is the method: Biochemical Capsid Assembly Assay
The screening for assembly effector activity was done based on a fluorescence quenching assay published by Zlotnick et al. (2007). The C-terminal truncated core protein containing 149 amino acids of the N-terminal assembly domain fused to a unique cysteine residue at position 150 and was expressed in E. coli using the pET expression system (Merck Chemicals, Darmstadt). Purification of core dimer protein was performed using a sequence of size exclusion chromatography steps. In brief, the cell pellet from 1 L BL21 (DE3) Rosetta2 culture expressing the coding sequence of core protein cloned NdeI/XhoI into expression plasmid pET21b was treated for 1 h on ice with a native lysis buffer (Qproteome Bacterial Protein Prep Kit; Qiagen, Hilden). After a centrifugation step the supernatant was precipitated during 2 h stirring on ice with 0.23 g/ml of solid ammonium sulfate. Following further centrifugation the resulting pellet was resolved in buffer A (100 mM Tris, pH 7.5; 100 mM NaCl; 2 mM DTT) and was subsequently loaded onto a buffer A equilibrated CaptoCore 700 column (GE HealthCare, Frankfurt). The column flow through containing the assembled HBV capsid was dialyzed against buffer N (50 mM NaHCO3 pH 9.6; 5 mM DTT) before urea was added to a final concentration of 3M to dissociate the capsid into core dimers for 1.5 h on ice. The protein solution was then loaded onto a 1 L Sephacryl 5300 column. After elution with buffer N core dimer containing fractions were identified by SDS-PAGE and subsequently pooled and dialyzed against 50 mM HEPES pH 7.5; 5 mM DTT. To improve the assembly capacity of the purified core dimers a second round of assembly and disassembly starting with the addition of 5 M NaCl and including the size exclusion chromatography steps described above was performed. From the last chromatography step core dimer containing fractions were pooled and stored in aliquots at concentrations between 1.5 to 2.0 mg/ml at −80° C.
Immediately before labelling the core protein was reduced by adding freshly prepared DTT in a final concentration of 20 mM. After […] on ice storage buffer and DTT was removed using a Sephadex G-25 column (GE HealthCare, Frankfurt) and 50 mM HEPES, pH 7.5. For labelling 1.6 mg/ml core protein was incubated at 4° C. and darkness overnight with BODIPY-FL maleimide (Invitrogen, Karlsruhe) in a final concentration of 1 mM. After labelling the free dye was removed by an additional desalting step using a Sephadex G-25 column. Labelled core dimers were stored in aliquots at 4° C. In the dimeric state the fluorescence signal of the labelled core protein is high and is quenched during the assembly of the core dimers to high molecular capsid structures. The screening assay was performed in black 384 well microtiter plates in a total assay volume of 10 μl using 50 mM HEPES pH 7.5 and 1.0 to 2.0 μM labelled core protein. Each screening compound was added in 8 different concentrations using a 0.5 log-unit serial dilution starting at a final concentration of 100 μM, 31.6 μM or 10 μM, In any case the DMSO concentration over the entire microtiter plate was 0.5%. The assembly reaction was started by the injection of NaCl to a final concentration of […] which induces the assembly process to approximately 25% of the maximal quenched signal. 6 min after starting the reaction the fluorescence signal was measured using a Clariostar plate reader (BMG Labtech, Ortenberg) with an excitation of 477 nm and an emission of 525 nm. As 100% and 0% assembly control HEPES buffer containing 2.5 M and 0 M NaCl was used. Experiments were performed thrice in triplicates. EC50 values were calculated by non-linear regression analysis using the Graph Pad Prism 6 software (GraphPad Software, La Jolla, USA).

In the next experiment the test system is HBV. Briefly: HBV replication assay: HBV DNA from the supernatants of HepAD38 cells. The note with it: Hepatitis B virus, 144 h, HBV DNA in supernatant by qPCR at day 6, read-out: Cell Activity. The format is cell-based. Here is the method: Determination of HBV DNA from the Supernatants of HepAD38 Cells
The anti-HBV activity was analysed in the stable transfected cell line HepAD38, which has been described to secrete high levels of HBV virion particles (Ladner et al., 1997). In brief, HepAD38 cells were cultured at 37° C. at 5% CO2 and 95% humidity in 200 μl maintenance medium, which was Dulbecco's modified Eagle's medium/Nutrient Mixture F-12 (Gibco, Karlsruhe), 10% fetal bovine serum (PAN Biotech Aidenbach) supplemented with 50 μg/ml penicillin/streptomycin (Gibco, Karlsruhe), 2 mM L-glutamine (PAN Biotech, Aidenbach), 400 μg/ml G418 (AppliChem, Darmstadt) and 0.3 μg/ml tetracycline. Cells were subcultured once a week in a 1:5 ratio, but were usually not passaged more than ten times. For the assay 60,000 cells were seeded in maintenance medium without any tetracycline into each well of a 96-well plate and treated with serial half-log dilutions of test compound. To minimize edge effects the outer 36 wells of the plate were not used but were filled with assay medium. On each assay plate six wells for the virus control (untreated HepAD38 cells) and six wells for the cell control (HepAD38 cells treated with 0.3 μg/ml tetracycline) were allocated, respectively. In addition, one plate set with reference inhibitors like BAY 41-4109, entecavir, and lamivudine instead of screening compounds were prepared in each experiment. In general, experiments were performed thrice in triplicates. At day 6 HBV DNA from 100 μl filtrated cell culture supernatant (AcroPrep Advance 96 Filter Plate, […] Supor membran, PALL GmbH, Dreieich) was automatically purified on the MagNa Pure LC instrument using the MagNA Pure 96 DNA and Viral NA Small Volume Kit (Roche Diagnostics, Mannheim) according to the instructions of the manufacturer. EC50 values were calculated from relative copy numbers of HBV DNA In brief, 5 μl of the 100 μl eluate containing HBV DNA were subjected to PCR LC480 Probes Master Kit (Roche) together with 1 μM antisense primer […], 0.5 μM sense primer […], 0.3 μM hybprobes […]-FL and LC640-[…]-PH (TIBMolBiol, Berlin) to a final volume of […]. The PCR was performed on the Light Cycler 480 real time system (Roche Diagnostics, Mannheim) using the following protocol: Pre-incubation for 1 min at 95° C., amplification: 40 cycles×(10 sec at 95° C., 50 sec at 60° C., 1 sec at 70° C.), cooling for 10 sec at 40° C. Viral load was quantitated against known standards using HBV plasmid DNA of pCH-9/3091 (Nassal et al., 1990, Cell 63: 1357-1363) and the LightCycler 480 SW 1.5 software (Roche Diagnostics, Mannheim) and EC50 values were calculated using non-linear regression with GraphPad Prism 6 (GraphPad Software Inc., La Jolla, USA).

T1 sequence (P03147 1-150, looked up, stated change not applied): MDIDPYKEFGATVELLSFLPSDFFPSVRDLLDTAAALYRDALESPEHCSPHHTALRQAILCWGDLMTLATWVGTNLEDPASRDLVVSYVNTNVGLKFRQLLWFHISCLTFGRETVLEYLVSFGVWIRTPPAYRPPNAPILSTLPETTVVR

Regarding `COCC1(N(C)C(=O)c2[nH]nc3c2CN(C(=O)c2cc4c(Cl)cccn4c2)CC3)CC1` [Example 3, 5-(8-chloroindolizine-2-carbonyl)-N-[1-(methoxymethyl)cyclopropyl]-N-methyl-2H,4H,5H,6H,7H-pyrazolo[4,3-c]pyridine-3-carboxamide], the IC50 in experiment [1] is less than 5 µM. The EC50 with HBV was less than 1 µM. `COCC1(N(C)C(=O)c2[nH]nc3c2CN(C(=O)c2cc4cccc(Cl)n4c2)CC3)CC1` [Example 4, 5-(5-chloroindolizine-2-carbonyl)-N-[1-(methoxymethyl)cyclopropyl]-N-methyl-2H,4H,5H,6H,7H-pyrazolo[4,3-c]pyridine-3-carboxamide]: the IC50 in experiment [1] was in the range of 5 to 10 µM. For the same compound, in the experiment with HBV, the EC50 was less than 1 µM. For `COCC1(N(C)C(=O)c2[nH]nc3c2CN(C(=O)c2cc4c(F)cc(F)cn4c2)CC3)CC1` [Example 5, 5-(6,8-difluoroindolizine-2-carbonyl)-N-[1-(methoxymethyl)cyclopropyl]-N-methyl-2H,4H,5H,6H,7H-pyrazolo[4,3-c]pyridine-3-carboxamide], in experiment [1], the IC50 was less than 5 µM. Moreover, in the experiment on HBV, the EC50 was less than 1 µM. As for `CN(C(=O)c1cnn2c1CN(C(=O)c1cc3c(Cl)cccn3c1)CC2)C1(COC(F)F)CC1` [Example 6, 5-(8-chloroindolizine-2-carbonyl)-N-{1-[(difluoromethoxy)methyl]cyclopropyl}-N-methyl-4H,5H,6H,7H-pyrazolo[1,5-a]pyrazine-3-carboxamide], the IC50 in experiment [1] was less than 5 µM. The EC50 with HBV was less than 1 µM.

In the case of `CN(C(=O)c1cnn2c1CN(C(=O)c1cc3c(F)cc(F)cn3c1)CC2)C1(COC(F)F)CC1` [Example 7, 5-(6,8-difluoroindolizine-2-carbonyl)-N-{1-[(difluoromethoxy)methyl]cyclopropyl}-N-methyl-4H,5H,6H,7H-pyrazolo[1,5-a]pyrazine-3-carboxamide], the IC50 in experiment [1] is less than 5 µM. Further, the EC50 in the experiment with HBV was less than 1 µM.

On to `CN(C(=O)c1cnn2c1CN(C(=O)c1cc3cccc(Cl)n3c1)CC2)C1(COC(F)F)CC1` [Example 8, 5-(5-chloroindolizine-2-carbonyl)-N-{1-[(difluoromethoxy)methyl]cyclopropyl}-N-methyl-4H,5H,6H,7H-pyrazolo[1,5-a]pyrazine-3-carboxamide], for which the IC50 in experiment [1] was less than 5 µM. The EC50 with HBV lay within 1 to 10 µM. For `CC1Cn2ncc(C(=O)N(C)C3(COC(F)F)CC3)c2CN1C(=O)c1cc2c(Cl)cccn2c1` (stereo not drawn) [Example 9, 5-(8-chloroindolizine-2-carbonyl)-N-{1-[(difluoromethoxy)methyl]cyclopropyl}-N,6-dimethyl-4H,5H,6H,7H-pyrazolo[1,5-a]pyrazine-3-carboxamide], the IC50 in experiment [1] is less than 5 µM. Further, the EC50 in the experiment with HBV is less than 1 µM. Take `CC1Cc2[nH]nc(-c3cscn3)c2CN1C(=O)c1cc2c(Cl)cccn2c1` (stereo not drawn) [Example 10, 8-chloro-2-[6-methyl-3-(1,3-thiazol-4-yl)-1H,4H,5H,6H,7H-pyrazolo[4,3-c]pyridine-5-carbonyl]indolizine]: the IC50 in experiment [1] is less than 5 µM. In addition, the EC50 in the experiment on HBV was less than 1 µM. Regarding `CC1Cc2[nH]nc(-c3cscn3)c2CN1C(=O)c1cc2cccc(C(F)(F)F)n2c1` (stereo not drawn) [Example 12, 2-[6-methyl-3-(1,3-thiazol-4-yl)-1H,4H,5H,6H,7H-pyrazolo[4,3-c]pyridine-5-carbonyl]-5-(trifluoromethyl)indolizine], in experiment [1], the IC50 is less than 100 µM. In addition, in the experiment on HBV, the EC50 is 1 to 10 µM. In the case of `Cc1cccc2cc(C(=O)N3Cc4c(-c5cscn5)n[nH]c4CC3C)cn12` (stereo not drawn) [Example 16, 5-methyl-2-[6-methyl-3-(1,3-thiazol-4-yl)-1H,4H,5H,6H,7H-pyrazolo[4,3-c]pyridine-5-carbonyl]indolizine], the IC50 in experiment [1] was 5 to 10 µM. For the same compound, the EC50 in the experiment on HBV fell in the range of 1 to 10 µM. As for `Cc1cccn2cc(C(=O)N3Cc4c(-c5cscn5)n[nH]c4CC3C)cc12` (stereo not drawn) [Example 17, 8-methyl-2-[6-methyl-3-(1,3-thiazol-4-yl)-1H,4H,5H,6H,7H-pyrazolo[4,3-c]pyridine-5-carbonyl]indolizine], in experiment [1], the IC50 is less than 5 µM. Further, the EC50 in the experiment on HBV is less than 1 µM.

As to `CC1Cc2[nH]nc(-c3cscn3)c2CN1C(=O)c1cc2c(Cl)cc(Cl)cn2c1` (stereo not drawn) [Example 18, 6,8-dichloro-2-[6-methyl-3-(1,3-thiazol-4-yl)-1H,4H,5H,6H,7H-pyrazolo[4,3-c]pyridine-5-carbonyl]indolizine], the IC50 in experiment [1] was 5 to 10 µM. Also, in the experiment on HBV, the EC50 is less than 1 µM. On to `CC(NC(=O)c1[nH]nc2c1CN(C(=O)c1cc3c(Cl)cccn3c1)CC2)C(F)(F)F` (stereo not drawn) [Example 49, 5-(8-chloroindolizine-2-carbonyl)-N-(1,1,1-trifluoropropan-2-yl)-2H,4H,5H,6H,7H-pyrazolo[4,3-c]pyridine-3-carboxamide], for which the EC50 with HBV was 1 to 10 µM. For the compound `CC(NC(=O)c1cnn2c1CN(C(=O)c1cc3ccccn3c1)CC2)C(F)(F)F` (stereo not drawn) [Example 50, 5-(indolizine-2-carbonyl)-N-(1,1,1-trifluoropropan-2-yl)-4H,5H,6H,7H-pyrazolo[1,5-a]pyrazine-3-carboxamide], the EC50 in the experiment on HBV is less than 1 µM. Take `CC(NC(=O)c1[nH]nc2c1CN(C(=O)c1cc3ccccn3c1)CC2)C(F)(F)F` (stereo not drawn) [Example 52, 5-(indolizine-2-carbonyl)-N-[1,1,1-trifluoropropan-2-yl]-2H,4H,5H,6H,7H-pyrazolo[4,3-c]pyridine-3-carboxamide]: the EC50 with HBV was less than 100 µM.
